Patent US20210238139A1, “MODULATORS OF TRYPTOPHAN CATABOLISM” (E-Therapeutics PLC, priority 2018, published 2021)

What follows are compounds tested on SK-OV-3 cells (assay: Effect of compounds on tryptophan catabolism in SK-OV-3 cell line (inhibition of kynurenine production, LC-MS/MS)). Conditions: Homo sapiens, SK-OV-3, 24 h, SK-OV-3 cell line, 24 h incubation, kynurenine in supernatant by LC-MS/MS; read-out: IC50 Ranges (ic50 values for inhibition of Kynurenine production).
Type: cell-based
Method in brief: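 Cells seeded overnight in McCoy's 5A/10% FBS, then switched to DMEM F-12 with 6 mg/mL L-tryptophan; compounds added at 8 3-fold dilutions from 30 μM, in duplicate, 24 h at 37 °C. Supernatant kynurenine measured by LC-MS/MS; ATP-based viability run in parallel; IC50 from % inhibition of Kyn production.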

Compared with `Cc1ccc(N(Cc2cccs2)C(=O)NC2CCCCC2)cc1` [Compound 201, 3-cyclohexyl-1-(p-tolyl)-1-(2-thienylmethyl) urea], `CC(=O)c1ccc(NC(=O)N(Cc2cccs2)C2CCCC2)cc1` [Compound 22, 3-(4-acetylphenyl)-1-cyclopentyl-1-(2-thienylmethyl)urea] is higher in IC50: 1000 to 5000 nM for the first, > 5000 nM for the second.

`O=C(NCCc1ccccc1)N(Cc1ccccn1)C1CCCCC1` [Compound 20, 1-cyclohexyl-3-(2-phenylethyl)-1-(2-pyridylmethyl)urea] and `O=C(Nc1ccc(F)c(F)c1)N(Cc1ccccn1)C1CCCCC1` [Compound 33, 1-cyclohexyl-3-(3,4-difluorophenyl)-1-(2-pyridylmethyl)urea] cannot be ordered by IC50: > 5000 nM for the first, > 5000 nM for the second.

First: Cc1ccc(CN(C(=O)Nc2ccc(C#N)cc2)[C@H]2C[C@H](F)C2)o1 [Compound 272, 3-(4-cyanophenyl)-1-(3-fluorocyclobutyl)-1-[(5-methyl-2-furyl)methyl]urea]
Second: COC1CC(N(Cc2ccc(C)o2)C(=O)Nc2ccc(C#N)cc2)C1 (stereo not shown) [Compound 216, 3-(4-cyanophenyl)-1-(3-methoxycyclobutyl)-1-[(5-methyl-2-furyl)methyl]urea]
The IC50 of the first is higher: 500 to 1000 nM for the first, < 100 nM for the second. The second is the more potent here.

`Cc1ccc(CN(C(=O)Nc2ccc(C(F)(F)F)nc2)C2CCCC2)o1` [Compound 228, 1-cyclopentyl-1-[(5-methyl-2-furyl)methyl]-3-[6-(trifluoromethyl)-3-pyridyl]urea] and `Cc1ccc(CN(C(=O)Nc2ccc(C#N)nc2)C2CCCC2)o1` [Compound 124, 3-(6-cyano-3-pyridyl)-1-cyclopentyl-1-[(5-methyl-2-furyl)methyl]urea] fall in the same range of IC50: 100 to 500 nM for the first, 100 to 500 nM for the second.

Compared with `N#Cc1ccc(CN(C(=O)Nc2ccccc2)C2CCCC2)o1` [Compound 60, 1-[(5-cyano-2-furyl)methyl]-1-cyclopentyl-3-phenyl-urea], `Cc1ncc(CN(C(=O)Nc2ccccc2)C2CCCC2)o1` [Compound 143, 1-cyclopentyl-1-[(2-methyloxazol-5-yl)methyl]-3-phenyl-urea] is higher in IC50: 500 to 1000 nM for the first, 1000 to 5000 nM for the second. The first is the more potent here.

First: O=C(NCc1sccc1Cl)Nc1cccc(Cl)c1 [Compound 204, 1-(3-chlorophenyl)-3-[(3-chloro-2-thienyl)methyl]urea]
Second: O=C(Nc1ccccc1)N(Cc1nccs1)C1CCCC1 [Compound 35, 1-cyclopentyl-3-phenyl-1-(thiazol-2-ylmethyl)urea]
The IC50 of the first is higher: > 5000 nM for the first, 1000 to 5000 nM for the second.

First: Cn1nccc1N(Cc1ccnc(C(F)(F)F)c1)C(=O)Nc1ccc(Cl)cc1 [Compound 302, 3-(4-chlorophenyl)-1-(2-methylpyrazol-3-yl)-1-[[2-(trifluoromethyl)-4-pyridyl]methyl]urea]
Second: Cc1ccc(CN(C(=O)Nc2ccc(Cl)cc2)c2cnnn2C)o1 [Compound 267, 3-(4-chlorophenyl)-1-[(5-methyl-2-furyl)methyl]-1-(3-methyltriazol-4-yl)urea]
The IC50 of the first is higher: 1000 to 5000 nM for the first, 100 to 500 nM for the second.

First: O=C(Nc1ccccc1)N(Cc1cccnc1)C1CCCC1 [Compound 65, 1-cyclopentyl-3-phenyl-1-(3-pyridylmethyl)urea]
Second: O=C(Nc1ccc(Cl)cc1)N(Cc1cccnc1)C1CCCC1 [Compound 66, 3-(4-chlorophenyl)-1-cyclopentyl-1-(3-pyridylmethyl)urea]
The IC50 of the first is higher: 1000 to 5000 nM for the first, 100 to 500 nM for the second. The second is the more potent here.

First: Cc1ccc(CN(C(=O)Nc2ccc(Cl)cc2)c2nc3ccccc3s2)o1 [Compound 300, 1-(1,3-benzothiazol-2-yl)-3-(4-chlorophenyl)-1-[(5-methyl-2-furyl)methyl]urea]
Second: Cc1ccc(CN(C(=O)Nc2ccc(Cl)cc2)c2ccccn2)o1 [Compound 282, 3-(4-chlorophenyl)-1-[(5-methyl-2-furyl)methyl]-1-(2-pyridyl)urea]
The IC50 of the first is higher: 1000 to 5000 nM for the first, 500 to 1000 nM for the second. The second is the more potent here.

Compared with `O=C(Nc1ccc(Cl)cc1)N(Cc1cn2ccccc2n1)C1CCC1` [Compound 250, 3-(4-chlorophenyl)-1-cyclobutyl-1-(imidazo[1,2-a]pyridin-2-ylmethyl)urea], `O=C(Nc1ccc(Cl)cc1)N(Cc1cc2ccccn2n1)C1CCC1` [Compound 239, 3-(4-chlorophenyl)-1-cyclobutyl-1-(pyrazolo[1,5-a]pyridin-2-ylmethyl)urea] is lower in IC50: 1000 to 5000 nM for the first, 100 to 500 nM for the second.

`Cc1ccc(CN(C(=O)Nc2ccc(Cl)cc2)c2ccn(C)n2)o1` [Compound 226, 3-(4-chlorophenyl)-1-[(5-methyl-2-furyl)methyl]-1-(1-methylpyrazol-3-yl)urea] and `Cc1ccc(CN(C(=O)Nc2ccc(Cl)cc2)c2cnn(C)c2)o1` [Compound 225, 3-(4-chlorophenyl)-1-[(5-methyl-2-furyl)methyl]-1-(1-methylpyrazol-4-yl)urea] fall in the same range of IC50: 100 to 500 nM for the first, 100 to 500 nM for the second.

Compared with `CCc1ccc(NC(=O)N(Cc2nccs2)C2CCCC2)cc1` [Compound 36, 1-cyclopentyl-3-(4-ethylphenyl)-1-(thiazol-2-ylmethyl)urea], `O=C(Nc1ccc(Cl)cc1)N(Cc1ccno1)C1CCCC1` [Compound 128, 3-(4-chlorophenyl)-1-cyclopentyl-1-(isoxazol-5-ylmethyl)urea] is lower in IC50: 1000 to 5000 nM for the first, 500 to 1000 nM for the second. The second is the more potent here.

First: CC1(CN(C(=O)Nc2ccc(F)cc2)C2CCCC2)CCNCC1 [Compound 86, 1-cyclopentyl-3-(4-fluorophenyl)-1-[(4-methyl-4-piperidyl)methyl]urea]
Second: COc1ccc(CN(C(=O)Nc2ccc(F)cc2)C2CCCC2)cc1C [Compound 48, 1-cyclopentyl-3-(4-fluorophenyl)-1-[(4-methoxy-3-methyl-phenyl)methyl]urea]
The IC50 of the first is higher: 1000 to 5000 nM for the first, 100 to 500 nM for the second.

`O=C(Nc1ccc(Cl)cc1)N(Cc1ccc2scnc2c1)C1CCC1` [Compound 260, 1-(1,3-benzothiazol-5-ylmethyl)-3-(4-chlorophenyl)-1-cyclobutyl-urea] and `N#Cc1ccc(NC(=O)N(Cc2ccc3scnc3c2)C2CCC2)cc1` [Compound 261, 1-(1,3-benzothiazol-5-ylmethyl)-3-(4-cyanophenyl)-1-cyclobutyl-urea] cannot be ordered by IC50: < 100 nM for the first, < 100 nM for the second.

First: Cn1ncc(CN(C(=O)Nc2ccc(F)c(F)c2)C2CCCC2)c1Cl [Compound 43, 1-[(5-chloro-1-methyl-pyrazol-4-yl)methyl]-1-cyclopentyl-3-(3,4-difluorophenyl) urea]
Second: N#Cc1cncc(CN(C(=O)Nc2ccc(Cl)cc2)C2CCCC2)c1 [Compound 115, 3-(4-chlorophenyl)-1-[(5-cyano-3-pyridyl)methyl]-1-cyclopentyl-urea]
The IC50 of the first is higher: 1000 to 5000 nM for the first, 100 to 500 nM for the second. The second is the more potent here.

`N#Cc1ccnc(CN(C(=O)Nc2ccc(Cl)cc2)C2CCCC2)c1` [Compound 116, 3-(4-chlorophenyl)-1-[(4-cyano-2-pyridyl)methyl]-1-cyclopentyl-urea] and `N#Cc1ccc(NC(=O)N(Cc2ccnc(C(F)(F)F)c2)C2CCC2)cc1` [Compound 152, 3-(4-cyanophenyl)-1-cyclobutyl-1-[[2-(trifluoromethyl)-4-pyridyl]methyl]urea] fall in the same range of IC50: 100 to 500 nM for the first, 100 to 500 nM for the second.

First: Cc1ccc(CN(C(=O)Nc2ccc(C#CC3CC3)cc2)C2CCCC2)o1 [Compound 107, 1-cyclopentyl-3-[4-(2-cyclopropylethynyl)phenyl]-1-[(5-methyl-2-furyl)methyl]urea]
Second: COc1ccc(NC(=O)N(Cc2ccc(C)o2)C2CCCC2)cc1 [Compound 290, 1-cyclopentyl-3-(4-methoxyphenyl)-1-[(5-methyl-2-furyl)methyl]urea]
The IC50 of the first is lower: < 100 nM for the first, 100 to 500 nM for the second. The first is the more potent here.

Compared with `Cc1ccc(CN(C(=O)Nc2ccc(C#N)cc2)c2ccccn2)o1` [Compound 283, 3-(4-cyanophenyl)-1-[(5-methyl-2-furyl)methyl]-1-(2-pyridyl)urea], `Cc1ccc(CN(C(=O)Nc2ccc(C#N)cc2)c2cnn(C)c2)o1` [Compound 218, 3-(4-cyanophenyl)-1-[(5-methyl-2-furyl)methyl]-1-(1-methylpyrazol-4-yl)urea] is lower in IC50: 1000 to 5000 nM for the first, 500 to 1000 nM for the second.

Compared with `Cc1ccc(CN(C(=O)Nc2nc3ccccc3s2)C2CCCC2)o1` [Compound 134, 3-(1,3-benzothiazol-2-yl)-1-cyclopentyl-1-[(5-methyl-2-furyl)methyl]urea], `Cc1ccc(CN(C(=O)Nc2ncc(Br)s2)C2CCCC2)o1` [Compound 161, 3-(5-bromothiazol-2-yl)-1-cyclopentyl-1-[(5-methyl-2-furyl)methyl]urea] is lower in IC50: 500 to 1000 nM for the first, < 100 nM for the second.

`Cc1ccc(CN(C(=O)Nc2ccc(C#N)cc2)c2conc2C)o1` [Compound 278, 3-(4-cyanophenyl)-1-[(5-methyl-2-furyl)methyl]-1-(3-methylisoxazol-4-yl)urea] and `Cc1nocc1N(Cc1cccc(C(F)(F)F)c1)C(=O)Nc1ccc(C#CCO)cc1` [Compound 315, 3-[4-(3-hydroxyprop-1-ynyl)phenyl]-1-(3-methylisoxazol-4-yl)-1-[[3-(trifluoromethyl)phenyl]methyl]urea] cannot be ordered by IC50: < 100 nM for the first, < 100 nM for the second.

First: Cc1ccc(CN(C(=O)Nc2ccc(Cl)cc2)c2ncccn2)o1 [Compound 327, 3-(4-chlorophenyl)-1-[(5-methyl-2-furyl)methyl]-1-pyrimidin-2-yl-urea]
Second: Cc1ccc(CN(C(=O)Nc2ccc(Cl)cc2)C2CCCC2C#N)o1 (stereo not shown) [Compound 227, 3-(4-chlorophenyl)-1-(2-cyanocyclopentyl)-1-[(5-methyl-2-furyl)methyl]urea]
The IC50 of the first is higher: 1000 to 5000 nM for the first, < 100 nM for the second. The second is the more potent here.

`Cc1nc(C)c(CN(C(=O)Nc2ccccc2)C2CCCC2)s1` [Compound 170, 1-cyclopentyl-1-[(2,4-dimethylthiazol-5-yl)methyl]-3-phenyl-urea] and `Cc1ccc(CN(C(=O)Nc2cccc(C#N)c2)C2CCCC2)o1` [Compound 93, 3-(3-cyanophenyl)-1-cyclopentyl-1-[(5-methyl-2-furyl)methyl]urea] fall in the same range of IC50: 1000 to 5000 nM for the first, 1000 to 5000 nM for the second.

Compared with `O=C(Nc1ccc(Cl)cc1)N(Cc1ccc2nsnc2c1)C1CCC1` [Compound 240, 1-(2,1,3-benzothiadiazol-5-ylmethyl)-3-(4-chlorophenyl)-1-cyclobutyl-urea], `Cc1cn(-c2ccc(NC(=O)N(Cc3ccc(C)o3)C3CCCC3)cc2)nn1` [Compound 320, 1-cyclopentyl-1-[(5-methyl-2-furyl)methyl]-3-[4-(4-methyltriazol-1-yl)phenyl]urea] is higher in IC50: < 100 nM for the first, 100 to 500 nM for the second.
